According to ChEMBL document CHEMBL1944573, “New bisabolane sesquiterpenoids from a marine-derived fungus Aspergillus sp. isolated from the sponge Xestospongia testudinaria” (Bioorg Med Chem Lett, 2012):
Values after ≈ are worked out from the molar mass of the structure shown.

Key:
[1] = test system: HepG2; assay: Cytotoxicity against human HepG2 cells by MTT assay; type: functional, cell-based
[2] = test system: Ca-Ski; assay: Cytotoxicity against human CaSki cells by MTT assay; type: functional, cell-based

Structure (SMILES): CC(C)CCC[C@](C)(O)c1ccc(CO)cc1Oc1cc(CO)ccc1[C@](C)(O)CCCC(C)C [DISYDONOL B]
- IC50 [1]: > 100 µg/mL
- IC50 [2]: > 100 µg/mL

Structure (SMILES): CC(C)CCC[C@](C)(O)c1ccc(COc2cc(CO)ccc2[C@@](C)(O)CCCC(C)C)cc1O [DISYDONOL A]
- IC50 [1]: 9.31 µg/mL (≈ 19.1 µM)
- IC50 [2]: 12.4 µg/mL (≈ 25.5 µM)

Structure (SMILES): CC(C)CCC[C@](C)(O)c1ccc(Cc2cc([C@@](C)(O)CCCC(C)C)c(O)cc2CO)cc1O [DISYDONOL C]
- IC50 [1]: 2.91 µg/mL (≈ 5.98 µM)
- IC50 [2]: 10.2 µg/mL (≈ 21 µM)
